Format in all cases: in vivo
Test [1] relates to Male Sprague-Dawley (Charles River) rats. Nature of the test: Capsaicin-induced allodynia model (von Frey filaments). As to conditions: rat. On the procedure: Male Sprague-Dawley (Charles River) rats were habituated to the von Frey stands for 4 hr the day prior to the testing day. Tactile allodynia was assessed using calibrated von Frey filaments (up-down method) before and 30, 60 and 120 min post capsaicin injection. Capsaicin (30 μg in 10 μl) was diluted in Ethanol:Tween80:Saline (20:7:73) and administered into the rat left paw. The test compound is administered P.O. at 3, 10 or 30 mg/kg (4 ml/kg) 30 min prior to capsaicin administration. Data are expressed as % inhibition=(post-treatment−post-vehicle)/(pre-capsaicin threshold−post-vehicle)×100. Statistic analysis: 2-way ANOVA (time and dose) and Bonferroni post-hoc analysis comparing each dose to vehicle.

The subject of a further test is Male Sprague Dawley rats. Put plainly: Rodent CFA model of inflammatory pain (mechanical hyperalgesia, Ugo Basile paw pressure). The following applies: rat CFA model.
The subject of test [2] is rats (Sprague-Dawley, Harlan). Put plainly: Spared Nerve Ligation (SNL)-induced allodynia model (von Frey filaments). The following applies: rat SNL model. Here is the method:
For the neuropathic pain model, rats (Sprague-Dawley, Harlan) were anesthetized with isoflurane and were placed on a heating pad. Using aseptic techniques, the L5 spinal nerve was exposed and ligated. Muscle and skin were closed with 4-0 Polydiaxone and wound clips, respectively. Animals were tested for allodynia 4 weeks post SNL surgery. Only rats that developed allodynia as defined by a significant decrease in their mechanical threshold using von Frey filaments, were used for evaluating the compound. Tactile allodynia was assessed with calibrated von Frey filaments (Stoelting Co), using an up-down paradigm before and at 2 hr and 44 hr post-compound administration. Data are expressed as % reversal=(post-treatment−post-vehicle)/(pre-SNL threshold−post-vehicle)×100.

As to `O=C(CC(c1ccccc1)c1ccccc1)N1CCNCC1` [Example 1, 1-(3,3-diphenylpropanoyl)piperazine], the “maximal percent inhibition of allodynia” value in test [1] (3 mg/kg P.O. 30 min before capsaicin challenge) turned out to be 33%; in test [1] (10 mg/kg P.O. 30 min before capsaicin challenge) it was 46%; in test [1] (30 mg/kg P.O. 30 min before capsaicin challenge) it was 89%. Besides, the reversal of hyperalgesia worked out at 17% with Male Sprague Dawley rats (3 mg/kg P.O., 3 hr post-dose); 26% in the test with Male Sprague Dawley rats (3 mg/kg P.O., one hour post-dose); 39% in the test on Male Sprague Dawley rats (10 mg/kg P.O., 3 hr post-dose); 43% with Male Sprague Dawley rats (10 mg/kg P.O., one hour post-dose); 44% in the test on Male Sprague Dawley rats (30 mg/kg P.O., 3 hr post-dose); 63% with Male Sprague Dawley rats (30 mg/kg P.O., one hour post-dose). Also, the entries for the “maximal percent reversal of allodynia” value in test [2] (3 mg/kg P.O.), in test [2] (10 mg/kg P.O.) and in test [2] (30 mg/kg P.O.) were 11%, 47% and 47%, respectively.

Values taken from patent publication US20080139578A1, “Substituted piperizines for the treatment of pain” (priority 2006, published 2008).
